Results from US20200069648A1, “HALOALLYLAMINE PYRAZOLE DERIVATIVE INHIBITORS OF LYSYL OXIDASES AND USES THEREOF” (Pharmaxis Ltd., priority 2017, published 2020).
Counter-ions that a name gives are not always drawn.

How the values were obtained:
Bovine LOX = biological target: T1, Bovine LOX (Bos taurus, UniProt P33072); test: LOX amine oxidase inhibition, peroxidase-coupled Amplex Red assay; assay type: biochemical; conditions: 30 min preincubation at 37° C., putrescine substrate
T1 sequence (P33072 170-418): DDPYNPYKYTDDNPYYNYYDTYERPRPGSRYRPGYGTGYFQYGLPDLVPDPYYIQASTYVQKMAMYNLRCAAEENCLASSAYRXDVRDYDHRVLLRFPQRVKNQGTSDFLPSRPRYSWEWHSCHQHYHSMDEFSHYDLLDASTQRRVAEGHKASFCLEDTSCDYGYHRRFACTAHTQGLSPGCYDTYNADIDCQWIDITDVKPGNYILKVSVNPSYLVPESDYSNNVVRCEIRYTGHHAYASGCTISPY
Text: (§1) Method to Determine the Ability of Compounds of the Invention to Inhibit LOX and LOXL1-4 from Different Sources
Lysyl oxidase (LOX) is an extracellular copper dependent enzyme which oxidizes peptidyl lysine and hydroxylysine residues in collagen and lysine residues in elastin to produce peptidyl alpha-aminoadipic-delta-semialdehydes. […] There are five LOX family members; these are LOX, LOXL1, LOXL2, LOXL3 and LOXL4. LOX and LOXL family members can be acquired as recombinant active proteins from commercial sources, or extracted from animal tissues like bovine aorta, tendons, pig skin; or prepared from cell cultures. The inhibitory effects of the compounds of the present invention were tested against the given LOX-LOXL preparation using a high-throughput coupled colorimetric method (Holt A. and Palcic M., A peroxidase-coupled continuous absorbance plate-reader assay for flavin monoamine oxidases, copper-containing amine oxidases and related enzymes. Nat. Protoc. 2006; 1: 2498-2505). The assay was developed using either 384 or 96 well format. Briefly, in a standard 384 well plate assay 25 μL of a dilution of any of the isoenzymes and orthologues in 1.2 M urea, 50 mM sodium borate buffer (pH 8.2) were added into each well in the presence of 1 μM mofegiline and 0.5 mM pargyline (to inhibit SSAO and MAO-B and MAO-A, respectively). […] Twenty five μL of a reaction mixture containing twice the KM concentration of putrescine (Sigma Aldrich, e.g. 20 mM for LOX, or 10 mM for LOXL2 and LOXL3), 120 μM Amplex Red (Sigma Aldrich) and 1.5 U/mL horseradish peroxidase (Sigma Aldrich) prepared in 1.2 M urea, 50 mM sodium borate buffer (pH 8.2) were then added to the corresponding wells. The above volumes were doubled in the case of 96 wells plate. The fluorescence (RFU) was read every 2.5 min for 30 min at a range of temperatures from 37° to 45° C., excitation 565 nm and emission 590 (Optima; BMG labtech). The slope of the kinetics for each well was calculated using MARS data analysis software (BMG labtech) and this value was used to deduce the IC50 value (Dotmatics).

Human LOXL2 = biological target: T2, Human LOXL2 (Homo sapiens, UniProt Q9Y4K0); test: LOXL2 amine oxidase inhibition, peroxidase-coupled Amplex Red assay; assay type: biochemical; conditions: 30 min preincubation at 37° C., putrescine substrate
T2 sequence (Q9Y4K0 26-774): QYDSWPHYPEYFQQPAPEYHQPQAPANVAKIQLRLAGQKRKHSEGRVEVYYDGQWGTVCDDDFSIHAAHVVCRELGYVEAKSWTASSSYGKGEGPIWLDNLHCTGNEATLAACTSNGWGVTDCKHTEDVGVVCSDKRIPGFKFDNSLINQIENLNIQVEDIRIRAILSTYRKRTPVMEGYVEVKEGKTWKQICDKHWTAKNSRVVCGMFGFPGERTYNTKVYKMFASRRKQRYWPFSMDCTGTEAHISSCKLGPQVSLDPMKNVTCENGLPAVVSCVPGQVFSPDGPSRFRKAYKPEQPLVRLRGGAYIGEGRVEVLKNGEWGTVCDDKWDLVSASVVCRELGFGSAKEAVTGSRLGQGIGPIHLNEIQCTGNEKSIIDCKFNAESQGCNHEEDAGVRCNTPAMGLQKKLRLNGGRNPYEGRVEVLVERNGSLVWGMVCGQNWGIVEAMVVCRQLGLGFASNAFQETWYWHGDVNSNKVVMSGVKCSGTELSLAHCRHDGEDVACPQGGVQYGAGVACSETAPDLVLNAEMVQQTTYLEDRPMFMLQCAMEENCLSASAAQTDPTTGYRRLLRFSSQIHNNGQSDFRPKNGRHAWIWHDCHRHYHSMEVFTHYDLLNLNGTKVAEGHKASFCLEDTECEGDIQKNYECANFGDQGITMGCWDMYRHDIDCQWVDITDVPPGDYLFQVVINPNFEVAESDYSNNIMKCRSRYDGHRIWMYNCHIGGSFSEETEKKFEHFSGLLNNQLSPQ
Text: as §1
Lysyl oxidase (LOX) is an extracellular copper dependent enzyme which oxidizes peptidyl lysine and hydroxylysine residues in collagen and lysine residues in elastin to produce peptidyl alpha-aminoadipic-delta-semialdehydes. […] There are five LOX family members; these are LOX, LOXL1, LOXL2, LOXL3 and LOXL4. LOX and LOXL family members can be acquired as recombinant active proteins from commercial sources, or extracted from animal tissues like bovine aorta, tendons, pig skin; or prepared from cell cultures. The inhibitory effects of the compounds of the present invention were tested against the given LOX-LOXL preparation using a high-throughput coupled colorimetric method (Holt A. and Palcic M., A peroxidase-coupled continuous absorbance plate-reader assay for flavin monoamine oxidases, copper-containing amine oxidases and related enzymes. Nat. Protoc. 2006; 1: 2498-2505). The assay was developed using either 384 or 96 well format. Briefly, in a standard 384 well plate assay 25 μL of a dilution of any of the isoenzymes and orthologues in 1.2 M urea, 50 mM sodium borate buffer (pH 8.2) were added into each well in the presence of 1 μM mofegiline and 0.5 mM pargyline (to inhibit SSAO and MAO-B and MAO-A, respectively). Test compounds were dissolved in DMSO and tested in a Concentration Response Curve (CRC) with 11 data points, typically in the micromolar or nanomolar range after incubation with the enzyme for 30 min at 37° C. Twenty five μL of a reaction mixture containing twice the KM concentration of putrescine (Sigma Aldrich, e.g. 20 mM for LOX, or 10 mM for LOXL2 and LOXL3), 120 μM Amplex Red (Sigma Aldrich) and 1.5 U/mL horseradish peroxidase (Sigma Aldrich) prepared in 1.2 M urea, 50 mM sodium borate buffer (pH 8.2) were then added to the corresponding wells. The above volumes were doubled in the case of 96 wells plate. The fluorescence (RFU) was read every 2.5 min for 30 min at a range of temperatures from 37° to 45° C., excitation 565 nm and emission 590 (Optima; BMG labtech). The slope of the kinetics for each well was calculated using MARS data analysis software (BMG labtech) and this value was used to deduce the IC50 value (Dotmatics).

Row | SMILES | IC50 (Bovine LOX) [µM] | IC50 (Human LOXL2) [µM]
1 | Cc1nn(Cc2ccc(S(=O)(=O)N(C)C)c(Cl)c2)c(C)c1C/C(F)=C/CN [Compound 46, (Z)-4-((4-(4-amino-2-fluorobut-2-en-1-yl)-3,5-dimethyl-1H-pyrazol-1-yl)methyl)-2-chloro-N,N-dimethylbenzenesulfonamide hydrochloride] | < 10 | < 1
2 | Cc1nn(Cc2ccc(S(=O)(=O)N(C)C)cc2Cl)c(C)c1C/C(F)=C/CN [Compound 47, (Z)-4-((4-(4-amino-2-fluorobut-2-en-1-yl)-3,5-dimethyl-1H-pyrazol-1-yl)methyl)-3-chloro-N,N-dimethylbenzenesulfonamide hydrochloride] | < 10 | < 1
3 | Cc1nn(C/C(F)=C/CN)c(C)c1Cc1ccc(NS(C)(=O)=O)cc1 [Compound 48, (Z)—N-(4-((1-(4-amino-2-fluorobut-2-en-1-yl)-3,5-dimethyl-1H-pyrazol-4-yl)methyl)phenyl)methane-sulfonamide hydrochloride] | < 10 | < 1
4 | Cc1nn(C/C(F)=C/CN)c(C)c1Cc1ccc(S(=O)(=O)C(C)C)c(Cl)c1 [Compound 49, (Z)-4-(4-(3-chloro-4-(isopropylsulfonyl)benzyl)-3,5-dimethyl-1H-pyrazol-1-yl)-3-fluorobut-2-en-1-amine hydrochloride] | < 10 | < 1
5 | Cc1c(Cc2ccc(S(=O)(=O)N(C)C)cc2)c(C(C)(C)C)nn1C/C(F)=C/CN [Compound 50, (Z)-4-((1-(4-amino-2-fluorobut-2-en-1-yl)-3-(tert-butyl)-5-methyl-1H-pyrazol-4-yl)methyl)-N,N-dimethylbenzenesulfonamide hydrochloride] | < 10 | < 1
6 | Cc1nn(C/C(F)=C/CN)c(C)c1Cc1ccc(S(N)(=O)=O)c(Cl)c1 [Compound 51, (Z)-4-((1-(4-amino-2-fluorobut-2-en-1-yl)-3,5-dimethyl-1H-pyrazol-4-yl)methyl)-2-chlorobenzenesulfonamide hydrochloride] | < 10 | < 1
7 | Cc1nn(C/C(F)=C/CN)c(C(C)(C)O)c1Cc1ccc(S(=O)(=O)N(C)C)c(Cl)c1 [Compound 54, (Z)-4-((1-(4-amino-2-fluorobut-2-en-1-yl)-5-(2-hydroxypropan-2-yl)-3-methyl-1H-pyrazol-4-yl)methyl)-2-chloro-N,N-dimethylbenzenesulfonamide hydrochloride] | > 10 | > 1
8 | Cc1nn(C/C(F)=C/CN)c(CO)c1Cc1ccc(S(=O)(=O)N(C)C)cc1Cl [Compound 55, (Z)-4-((1-(4-amino-2-fluorobut-2-en-1-yl)-5-(hydroxymethyl)-3-methyl-1H-pyrazol-4-yl)methyl)-3-chloro-N,N-dimethylbenzenesulfonamide hydrochloride] | < 10 | < 1
9 | Cc1nn(C/C(F)=C/CN)c(C(F)(F)F)c1Cc1ccc(S(=O)(=O)N(C)C)c(Cl)c1 [Compound 56, (Z)-4-((1-(4-amino-2-fluorobut-2-en-1-yl)-3-methyl-5-(trifluoromethyl)-1H-pyrazol-4-yl)methyl)-2-chloro-N,N-dimethylbenzenesulfonamide hydrochloride] | < 10 | < 1
10 | Cc1c(Cc2ccc(S(=O)(=O)N(C)C)c(Cl)c2)c(C(F)(F)F)nn1C/C(F)=C/CN [Compound 57, (Z)-4-((1-(4-amino-2-fluorobut-2-en-1-yl)-5-methyl-3-(trifluoromethyl)-1H-pyrazol-4-yl)methyl)-2-chloro-N,N-dimethylbenzenesulfonamide hydrochloride] | < 10 | < 1
11 | CC(C)c1nn(C/C(F)=C/CN)c(C(C)O)c1Cc1ccc(S(=O)(=O)N(C)C)cc1Cl (centres unmarked) [Compound 58, (Z)-4-((1-(4-amino-2-fluorobut-2-en-1-yl)-5-(1-hydroxyethyl)-3-isopropyl-1H-pyrazol-4-yl)methyl)-3-chloro-N,N-dimethylbenzenesulfonamide hydrochloride] | > 10 | < 1
12 | Cc1nn(Cc2ccc(S(=O)(=O)N(C)C)c(Cl)c2)c(C(C)O)c1C/C(F)=C/CN (stereo not drawn) [Compound 63, (Z)-4-((4-(4-amino-2-fluorobut-2-en-1-yl)-5-(l-hydroxyethyl)-3-methyl-1H-pyrazol-1-yl)methyl)-2-chloro-N,N-dimethylbenzenesulfonamide hydrochloride] | < 10 | < 1
13 | CC(C)c1nn(Cc2ccc(S(=O)(=O)N(C)C)c(Cl)c2)c(C(C)C)c1C/C(F)=C/CN [Compound 64, (Z)-4-((4-(4-amino-2-fluorobut-2-en-1-yl)-3,5-diisopropyl-1H-pyrazol-1-yl)methyl)-2-chloro-N,N-dimethylbenzenesulfonamide hydrochloride] | < 10 | < 1
14 | Cc1nn(C/C(F)=C/CN)c(C(C)C)c1Cc1ccc(S(=O)(=O)N(C)C)c(Cl)c1 [Compound 65, (Z)-4-((1-(4-amino-2-fluorobut-2-en-1-yl)-5-isopropyl-3-methyl-1H-pyrazol-4-yl)methyl)-2-chloro-N,N-dimethylbenzenesulfonamide hydrochloride] | < 10 | < 1
15 | Cc1c(Cc2ccc(S(=O)(=O)N(C)C)c(Cl)c2)c(C(C)C)nn1C/C(F)=C/CN [Compound 66, (Z)-4-((1-(4-amino-2-fluorobut-2-en-1-yl)-3-isopropyl-5-methyl-1H-pyrazol-4-yl)methyl)-2-chloro-N,N-dimethylbenzenesulfonamide hydrochloride] | < 10 | < 1
16 | CS(=O)(=O)c1cccc(-c2cnn(C/C(F)=C/CN)c2)c1 [Compound 67, (Z)-3-fluoro-4-(4-(3-(methylsulfonyl)phenyl)-1H-pyrazol-1-yl)but-2-en-1-amine hydrochloride] | < 10 | < 1
